Data from article PMC10418113 (bioRxiv, 2023).

What was measured:
[1] = molecular target: T1, DLD (E3 subunit of purified porcine PDHC) (Sus scrofa, UniProt P09623); assay: diaphorase activity, NBT-formazan at […] nm and in-gel; format: biochemical; settings: 0.1 mg/mL NADH, 0.2 mg/mL NBT, 50 mM potassium phosphate pH 7.0
T1 sequence (P09623 36-509): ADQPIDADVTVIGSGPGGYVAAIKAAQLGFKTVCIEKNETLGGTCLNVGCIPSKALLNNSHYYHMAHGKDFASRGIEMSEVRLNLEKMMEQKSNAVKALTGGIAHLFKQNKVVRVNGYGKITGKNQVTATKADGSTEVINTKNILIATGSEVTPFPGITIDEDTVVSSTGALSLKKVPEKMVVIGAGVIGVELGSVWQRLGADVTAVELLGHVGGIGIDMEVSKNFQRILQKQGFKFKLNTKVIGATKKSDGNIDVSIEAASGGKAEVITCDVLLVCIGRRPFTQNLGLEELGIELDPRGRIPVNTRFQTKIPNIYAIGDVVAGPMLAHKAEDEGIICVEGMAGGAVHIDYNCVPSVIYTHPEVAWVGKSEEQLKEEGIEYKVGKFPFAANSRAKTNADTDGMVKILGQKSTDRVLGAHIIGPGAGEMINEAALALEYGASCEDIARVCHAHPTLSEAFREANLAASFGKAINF

BCKDC (E2 subunit DBT) = BCKDC (E2 subunit DBT) (Mus musculus, UniProt P53395); assay: BCKDC activity of matrix lysate after preincubation, isovaleryl-CoA by LCMS; format: biochemical; settings: read-out: % inhibition at 0.1 μM
BCKDC (E2 subunit DBT), sequence (P53395 62-482): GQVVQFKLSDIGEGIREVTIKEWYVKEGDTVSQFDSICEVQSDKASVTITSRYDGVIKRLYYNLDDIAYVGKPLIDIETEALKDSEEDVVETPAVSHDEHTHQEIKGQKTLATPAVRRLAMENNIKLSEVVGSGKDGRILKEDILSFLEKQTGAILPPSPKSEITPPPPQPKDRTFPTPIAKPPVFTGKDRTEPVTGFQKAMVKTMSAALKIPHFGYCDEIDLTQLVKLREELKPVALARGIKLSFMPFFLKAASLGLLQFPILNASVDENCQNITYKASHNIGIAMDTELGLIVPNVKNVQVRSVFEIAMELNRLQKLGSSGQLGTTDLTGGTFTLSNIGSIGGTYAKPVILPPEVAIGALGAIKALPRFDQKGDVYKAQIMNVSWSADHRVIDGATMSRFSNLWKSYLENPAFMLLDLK
BCKDC (E2 subunit DBT), sequence (P50136 43-442 partner): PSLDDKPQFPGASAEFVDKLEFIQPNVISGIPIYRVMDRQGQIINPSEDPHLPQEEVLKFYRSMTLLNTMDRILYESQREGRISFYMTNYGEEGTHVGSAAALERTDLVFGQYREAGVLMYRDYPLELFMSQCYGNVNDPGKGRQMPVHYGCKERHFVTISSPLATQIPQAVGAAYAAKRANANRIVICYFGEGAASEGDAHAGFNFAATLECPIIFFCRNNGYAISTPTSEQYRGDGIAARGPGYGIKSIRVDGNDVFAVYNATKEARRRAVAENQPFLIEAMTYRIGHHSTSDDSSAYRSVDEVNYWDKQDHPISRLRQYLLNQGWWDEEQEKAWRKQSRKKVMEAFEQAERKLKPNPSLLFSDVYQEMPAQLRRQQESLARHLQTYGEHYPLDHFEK
BCKDC (E2 subunit DBT), sequence (Q6P3A8 49-390 partner): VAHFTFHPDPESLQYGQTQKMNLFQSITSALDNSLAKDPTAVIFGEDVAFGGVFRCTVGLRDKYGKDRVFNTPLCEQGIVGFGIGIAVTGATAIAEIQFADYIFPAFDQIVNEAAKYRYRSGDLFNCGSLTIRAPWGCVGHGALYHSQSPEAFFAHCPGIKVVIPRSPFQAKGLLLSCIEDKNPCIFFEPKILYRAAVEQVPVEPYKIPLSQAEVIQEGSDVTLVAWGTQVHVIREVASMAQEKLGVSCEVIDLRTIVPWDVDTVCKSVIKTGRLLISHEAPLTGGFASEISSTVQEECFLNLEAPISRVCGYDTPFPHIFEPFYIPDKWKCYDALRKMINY
BCKDC (E2 subunit DBT), sequence (O08749 36-509 partner): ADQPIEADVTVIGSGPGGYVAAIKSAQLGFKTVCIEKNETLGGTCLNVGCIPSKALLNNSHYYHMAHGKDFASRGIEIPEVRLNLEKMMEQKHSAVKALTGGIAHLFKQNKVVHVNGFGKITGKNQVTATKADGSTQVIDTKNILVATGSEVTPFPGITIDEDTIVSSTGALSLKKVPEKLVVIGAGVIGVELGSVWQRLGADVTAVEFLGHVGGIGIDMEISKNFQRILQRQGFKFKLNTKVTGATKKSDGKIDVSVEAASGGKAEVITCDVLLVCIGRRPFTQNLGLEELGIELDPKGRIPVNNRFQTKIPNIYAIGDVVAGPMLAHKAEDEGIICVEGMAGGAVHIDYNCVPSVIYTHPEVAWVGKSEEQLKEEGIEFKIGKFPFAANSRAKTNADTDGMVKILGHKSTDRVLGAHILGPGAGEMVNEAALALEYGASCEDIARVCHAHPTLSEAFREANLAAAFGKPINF

SMILES	diaphorase activity, NBT-formazan at 568 nm and in-gel [1]	inhibition at 0.1 µM (BCKDC (E2 subunit DBT)) [%]
NC(=O)C1=CN([C@@H]2O[C@H](COP(=O)(O)OP(=O)(O)OC[C@H]3O[C@@H](n4cnc5c(N)ncnc54)[C@H](O)[C@@H]3O)[C@@H](O)[C@H]2O)C=CC1 [NADH]	As a blank control, the same amount of mitochondria lysate was mixed with assay buffer without NADH	–
CC(C)(COP(=O)(O)OP(=O)(O)OC[C@H]1O[C@@H](n2cnc3c(N)ncnc32)[C@H](O)[C@@H]1OP(=O)(O)O)[C@@H](O)C(=O)NCCC(=O)NCCSN=O [SNO-CoA]	–	> 50
